# From ChEMBL document CHEMBL1152033, “Spiro-piperidine non-peptide neurokinin-1 receptor antagonists” (Bioorg Med Chem Lett, 1995)
# pKi: −log10 of the molar value.
# Target: Substance-P receptor (Homo sapiens, UniProt P25103)
# Test: Binding affinity measured by displacement of tritiated radiolabeled substance P from cloned human NK1 receptor expressed in CHO cell membranes
# Chain of Substance-P receptor (P25103 whole entry): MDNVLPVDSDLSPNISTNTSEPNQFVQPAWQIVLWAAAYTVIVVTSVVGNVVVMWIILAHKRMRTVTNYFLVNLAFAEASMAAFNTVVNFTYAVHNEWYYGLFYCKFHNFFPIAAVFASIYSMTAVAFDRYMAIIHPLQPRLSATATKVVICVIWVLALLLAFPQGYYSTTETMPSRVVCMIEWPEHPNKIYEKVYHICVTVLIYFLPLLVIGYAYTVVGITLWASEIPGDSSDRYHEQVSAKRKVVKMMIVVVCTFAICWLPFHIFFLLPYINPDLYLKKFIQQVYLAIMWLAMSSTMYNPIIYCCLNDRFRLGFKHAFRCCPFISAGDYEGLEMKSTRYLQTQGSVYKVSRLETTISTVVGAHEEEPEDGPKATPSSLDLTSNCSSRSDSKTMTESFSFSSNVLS
row,Structure (SMILES),pKi
1,COc1ccccc1CN[C@H]1CCCN[C@@]12CCc1ccccc12,< 6.00
2,COc1ccccc1CN[C@H]1CCCN[C@]12CCc1ccccc12,7.40
